For 59 molecules, RP-LC retention time results are on record in the METLIN SMRT retention time set (Domingo-Almenara et al. 2019).

The nature of the series: gradient 5% acetonitrile 3 min, to 50% in 2 min, to 85% in 15 min, held 3 min, 100 µL/min. The note with it: column: Zorbax Extend-C18 2.1 x 50 mm; eluents: water / acetonitrile, 0.1% formic acid. Put shortly: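 A Zorbax Extend-C18 column (2.1 × 50 mm, 1.8 μm) run at 100 μL/min with water and acetonitrile, both containing 0.1% formic acid, separated mixtures of ~100 pure standards. The HPLC was coupled to a quadrupole time-of-flight mass spectrometer operated in positive and negative ionization mode, with dead and dwell volumes of 40 μL and 900 μL. Each retention time was taken from a computationally picked adduct peak that was then manually inspected.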
The molecule `O=C(O)c1cc(-c2ccc(F)cc2)nc2ccccc12` registered an RP-LC retention time of 884 s.

Turning to `Cc1ccc(NC(=O)C2CCN(S(C)(=O)=O)c3cc(Cl)ccc3O2)cc1` (centres undefined), the RP-LC retention time came out at 1010 s.

For `CC(C)(C)c1noc(-c2cccnc2-n2cnc(C(=O)Nc3cccc(F)c3)c2)n1`, the RP-LC retention time is 1000 s.

As for `O=C(CSCCSCC(=O)Nc1ccccc1)Nc1ccccc1`, the RP-LC retention time was 775 s.

The molecule `Cc1cc(C)c(S(=O)(=O)N2CCC(C(=O)NCc3csc(-c4ccccc4)n3)CC2)cc1C` returned an RP-LC retention time of 1050 s.

As to `CCOc1ccc(-c2ccc(=O)n(CCc3nc(-c4ccc(SC)cc4)no3)n2)cc1`, the RP-LC retention time came out at 1030 s.

The molecule `CCOc1cc(CNC(=O)c2ccc3c(c2)N(C)C(=O)c2ccccc2O3)cc(OCC)c1OCC` yielded an RP-LC retention time of 973 s.

For `CC1=CC(=C2C=CC(=O)C=C2)C=C(C)N1C`, the RP-LC retention time was found to be 620 s.

The molecule `C=Cc1ccc(Cn2nc3ccc(S(=O)(=O)N4CCOCC4)cn3c2=O)cc1` gave an RP-LC retention time of 864 s.

`CCOc1ccc(S(=O)(=O)N2CCC(c3noc(-c4cccc(OC)c4)n3)CC2)cc1`: the RP-LC retention time is 1150 s.

`CC(C)N1CCCn2cc(S(=O)(=O)Nc3cccc(C(F)(F)F)c3)cc2C1=O` had an RP-LC retention time of 865 s.

In the case of `COc1cccc(OC)c1OCCNCC1CSc2ccccc2O1` (centres undefined), the RP-LC retention time was found to be 815 s.

Consider `Cc1ccc2nc(CCNC(=O)Cn3nc(C(=O)N4CCCC4)c4ccccc43)[nH]c2c1`, for which the RP-LC retention time was determined as 613 s.

In the case of `COc1ccc(Cn2c(=O)c3sccc3n(Cc3nc(-c4cccc(C)c4)no3)c2=O)cc1`, the RP-LC retention time is 1160 s.

The molecule `COc1cccc(-c2cc3n(n2)CCCN(C(=O)Cc2ccsc2)C3)c1` had an RP-LC retention time of 587 s.

As to `O=C(Nc1ccccc1)N1CCC(N2CC(OCC3CC3)C23CCOCC3)CC1` (centres undefined), the RP-LC retention time amounted to 635 s.

In turn, `CCOC(=O)C1CC(=O)c2cc(OC)c(OC)cc2C1` (centres undefined) returned an RP-LC retention time of 812 s.

Take `Cc1noc(CNC(=O)CN(C)c2nc3c(F)cccc3s2)n1`: the RP-LC retention time was determined as 667 s.

Regarding `COc1cccc(N2CCN(S(=O)(=O)c3cc(-c4cc(C(F)(F)F)[nH]n4)sc3C)CC2)c1`, the RP-LC retention time was 1120 s.

Turning to `Cc1oc2ccn(Cc3ccc(F)cc3)c(=O)c2c1C(=O)O`, the RP-LC retention time came to 873 s.

`CN(C)C(=O)c1cc2sc(Cl)cc2n1C` registered an RP-LC retention time of 837 s.

In turn, `Cc1ccc(-c2noc(CSc3nc4cc5c(cc4c(=O)n3C3CC3)OCO5)n2)cc1` yielded an RP-LC retention time of 874 s.

In the case of `Cc1cccc2c(C(N)=O)cc(N3CCN(C)CC3)nc12`, the RP-LC retention time was 579 s.

As to `CC(C)Cc1ccc(S(=O)(=O)N2CCC3(CC2)CCC(O)(CN2CCCC2)CC3)cc1`, the RP-LC retention time was 786 s.

As to `Cc1cc(Cl)ccc1NS(=O)(=O)c1ccc(-c2c(C)noc2C)cc1`, the RP-LC retention time came to 1030 s.

For the molecule `Cc1nc2cc(-c3noc(-c4ccc(C)c(C)c4)n3)ccc2o1`, the RP-LC retention time came out at 1280 s.

On to `COCCCNC(=O)CCc1nnc2ccc(-c3ccc(C)c(C)c3)nn12`, for which the RP-LC retention time stood at 718 s.

The molecule `CCNC(=O)c1sc2nc(-c3cccc(C)c3)c(NCCOC)n2c1C` returned an RP-LC retention time of 737 s.

Molecule `COc1cccc(N2C(=O)Nc3ccccc3C2(O)C(=O)N2CCN(c3ccccn3)CC2)c1` (centres undefined) displayed an RP-LC retention time of 603 s.

`COC(=O)C(Cc1ccccc1)NC(=O)Nc1cccn2cnnc12` (centres undefined) showed an RP-LC retention time of 700 s.

`CCCC(=O)N1CCN(c2ccc(=O)n(-c3ccc(C(C)C)cc3)n2)CC1` gave an RP-LC retention time of 851 s.

`CC1=C(c2ccc(F)cc2)S(=O)(=O)N=C1N1CCCN(C(=O)NC2CCCC2)CC1` displayed an RP-LC retention time of 820 s.

`Cn1c(=O)sc2cc(S(=O)(=O)N3CCC(C(=O)N4CCCC4)CC3)ccc21` returned an RP-LC retention time of 702 s.

Molecule `C=CCn1nnc(NCc2ccc(-c3ccc(Br)cc3Br)o2)n1` came in with an RP-LC retention time of 1200 s.

In turn, `CC(=O)Oc1cc2c(s1)CCN(C(C(=O)C1CC1)c1ccccc1F)C2` (centres undefined) came in with an RP-LC retention time of 739 s.

In the case of `Fc1cccc(Cn2cc(-c3noc(-c4ccccc4)n3)nn2)c1`, the RP-LC retention time came to 986 s.

As for `O=C(Cn1nc(N2CCCC2)c2ccccc2c1=O)Nc1ccc2c(c1)OCO2`, the RP-LC retention time was 854 s.

For the molecule `COc1ccc(S(=O)(=O)N2CCC(c3noc(-c4cccc(F)c4)n3)CC2)cc1`, the RP-LC retention time is 1100 s.

Regarding `C[C@@H](C(=O)O)c1ccc(-c2ccccc2)c(F)c1`, the RP-LC retention time was 974 s.

`Cc1ccc(NC(=O)C2CC(=O)N(CCc3c[nH]c4ccc(F)cc34)C2)c(C)c1` (centres undefined) came in with an RP-LC retention time of 847 s.

In turn, `COc1ccc(OC)c(S(=O)(=O)N2CCc3c(c(-c4nnc(-c5ccc(F)cc5)o4)nn3C)C2)c1` had an RP-LC retention time of 900 s.

In turn, `O=C(Cn1nc2nc(Nc3ccc(F)cc3)ccn2c1=O)NCC1CCCO1` (centres undefined) yielded an RP-LC retention time of 637 s.

The molecule `O=C(Oc1ccc2oc(=O)sc2c1)c1cccc(Cl)c1` gave an RP-LC retention time of 1090 s.

Consider `O=C(NCc1cccnc1)c1ccc(-c2ccc(N3CCSCC3)nc2)cc1`, for which the RP-LC retention time was 582 s.

As to `CN1C(=O)[C@H]2CN(Cc3ccc(F)cc3Cl)C[C@H]2C1=O`, the RP-LC retention time is 642 s.

Molecule `Cc1ccc2c(Nc3ccc(Br)cc3)c(C(=O)N3CCOCC3)cnc2n1` displayed an RP-LC retention time of 608 s.

`CCCCOc1ccc(-c2ccc(=O)n(Cc3nc(-c4cc(OC)c(OC)c(OC)c4)no3)n2)cc1` displayed an RP-LC retention time of 1200 s.

Molecule `COc1ccc(CNC(=O)C2(C)CCCN(S(=O)(=O)c3ccccc3Cl)C2)cc1` (centres undefined) yielded an RP-LC retention time of 932 s.

`CCOc1cc(-c2ccc(F)cc2)nc2ccc(NS(=O)(=O)c3ccc(C#N)cc3)cc12` came in with an RP-LC retention time of 801 s.

With `O=C(CCCN1CCC2(CC1)C(=O)N(Cc1cccc(F)c1)CN2c1ccccc1)c1ccc(F)cc1`, the RP-LC retention time was 981 s.

Molecule `COc1cc(OC)c(NC(=O)C(C)Oc2ccc(=O)n(-c3ccc(F)cc3)n2)cc1Cl` (centres undefined) gave an RP-LC retention time of 844 s.

`COc1ccc2[nH]cc(CCN3CC(C(=O)Nc4cc(C)cc(C)c4)CC3=O)c2c1` (centres undefined) gave an RP-LC retention time of 846 s.

`O=C(NCc1ccc(F)c(Cl)c1)c1csc(C(=O)NC2CCCC2)n1` displayed an RP-LC retention time of 976 s.

Molecule `CN(C)S(=O)(=O)NCc1nnnn1C1CCCCC1` came in with an RP-LC retention time of 681 s.

In turn, `Cc1ccsc1C(=O)Nc1ccc(N2CCN(Cc3ccccc3)C2=O)nc1` came in with an RP-LC retention time of 834 s.

As to `Cn1c(CNC(=O)CN2CCN(Cc3ccc(F)cc3)C2=O)nc2ccccc21`, the RP-LC retention time worked out at 628 s.

Regarding `Cc1ccc(S(=O)(=O)N2CC=C(c3cn(C)c4ncccc34)CC2)cc1C`, the RP-LC retention time was determined as 1080 s.

Take `Cc1ccc(S(=O)(=O)N2CCN(C3=CC4=NC(C)CN4C=N3)CC2)cc1C` (centres undefined): the RP-LC retention time was 698 s.

`Cc1ccc(-c2cc3c(=O)n(Cc4noc(CN5CCN(C)CC5)n4)ccn3n2)cc1C` had an RP-LC retention time of 662 s.
